Patent US11440923B2, “Substituted macrocyclic indole derivatives” (Bayer Aktiengesellschaft, priority 2017, dated 2022)
Counter-ions that a name gives are not always drawn. Like-named read-outs stand apart in the source and are kept apart here.

Assays:
BCL-XL = BCL-XL (Homo sapiens (Human), UniProt Q07817); experiment: Protein-protein interaction assay BCL-XL/Bad BH3 peptide (BCL-XL assay, TR-FRET); format: binding; settings: read-out: BCL-XL Assay IC50 (median)
Protocol: Assay 2 Protein-Protein Interaction Assay: BCL-XL/Bad BH3 Peptide (BCL-XL Assay)
The dose-dependent inhibition by the compounds described in this invention of the interaction between BCL-XL and the BH3 domain of Bad (both human) was determined using a steady state binding competition assay with time-resolved fluorescence energy transfer (TR-FRET) readout. For that purpose BCL-XL (amino acids 1-212, C-terminal fused to a hexahistidine (6×His) tag (SEQ ID 3) and a synthetic Bad BH3-derived peptide of sequence Biotin-PEG2-PEG2-[…]-Nle-[…]-amide (SEQ ID 4) served as protein receptor and tracer ligand respectively. The recombinant BCL-XL protein (expressed in E. coli) was purchased from BPS Bioscience (San Diego, Calif., USA). The Bad BH3-derived peptide can be obtained from e.g. Biosyntan (Berlin, Germany).
In the assay 11 different concentrations of each compound (0.1 nM, 0.33 nM, 1.1 nM, 3.8 nM, 13 nM, 44 nM, 0.15 μM, 0.51 μM, 1.7 μM, 5.9 μM and 20 μM) were typically measured as duplicates in the same microtiter plate. For that, 100-fold concentrated DMSO solutions were prepared by serial dilutions (1:3.4) of a 2 mM stock solution in a clear, 384-well microtiter plate (Greiner Bio-One, Frickenhausen, Germany). From there, 50 nl were transferred in a dark test plate (Greiner Bio-One, Frickenhausen, Germany). The assay was initiated by addition of 2 μL of a 2,5-fold concentrated His-BCL-XL solution (usually for a 1 nM end concentration in 5 μL reaction volume) in aqueous assay buffer [50 mM Tris/HCl pH 7, 100 mM sodium chloride (NaCl), 50 mM potassium fluoride (KF), 0.005% Tween-20, 2 mM DTT, 0.1% bovine gamma globulin (BGG)] to the compounds in the assay plate. This was followed by a 10-minute incubation step at 22° C. for pre-equilibration of the putative complex between His-BCL-XL and the compounds. After that, 3 μL of a 1.67-fold concentrated solution (in assay buffer) consisting of Bad BH3-derived peptide (1 nM end concentration) and TR-FRET detection reagents [1.67 nM anti-His-Eu cryptate and 1.67 nM streptavidin-XL665 (both from Cisbio Bioassays, Codolet, France)], were added.
The mixture was incubated in the dark for one hour at 22° C. and then overnight at 4° C. The formation of BCL-XL/Bad complexes was determined by measuring the resonance energy transfer of the anti-His- Eu-cryptate antibody to the streptavidin-XL665 present in the reaction. For that purpose, the fluorescence emission at 620 nm and 665 nm after excitation at 330-350 nm was measured in a TR-FRET measuring instrument, for instance a Rubystar or a Pherastar (both from BMG Lab Technologies, Offenburg, Germany) or a Viewlux (Perkin-Elmer). The ratio of the emission at 665 nm and at 622 nm was used as indicator of the amount of BCL-XL/Bad complexes present.
The resulting data (ratio) were normalized, taking 0% inhibition as the mean value of control measurements (usually 32 data points) where all reagents were included. In this case 50 nl DMSO were used instead of compounds. […] IC50 values were determined by regression analysis based on a 4 parameter equation (minimum, maximum, IC50, Hill; Y=Max+(Min−Max)/(1+(X/IC50)^Hill) using the Screener Software (Genedata).

SUDHL5 cells = experiment: Induction of caspase-3/7 activity in SUDHL5 cells (Assay 4); format: cell-based
In short: (§1)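 Caspase-3/7 activity measured in DLBCL lines after 3 h compound exposure at 37 °C, following overnight plating; Caspase-Glo 3/7 luminescence read after 1 h at 37 °C. Medium-only background subtracted, values normalized to mean of DMSO-treated cells.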

SUDHL10 cells = experiment: Induction of caspase-3/7 activity in SUDHL10 cells (Assay 4); format: cell-based
In short: as §1

AMO-1 cells = experiment: Antiproliferation assay AMO-1 (Assay 7); format: cell-based
In short: (§2)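 72 h antiproliferation, 37 °C, CellTiter-Glo luminescence. Day 0 plate = CI; DMSO = C0; IC50 calculated from these.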

HMC-1-8 cells = experiment: Antiproliferation assay HMC-1-8 (Assay 7); format: cell-based; settings: 72 h
In short: as §2

[1] = Homo sapiens, SU-DHL-5, 3 h, caspase-3/7 induction, 3 h, read-out: Caspase SUDHL5 EC50 (median)
[2] = Homo sapiens, SU-DHL10, 3 h, caspase-3/7 induction, 3 h, read-out: Caspase SUDHL10 EC50 (median)
[3] = Homo sapiens, AMO1, 72 h, 72 h, CellTiter-Glo, read-out: Antiproli AMO-1 IC50 median
[4] = CellTiter-Glo, read-out: Antiproli HMC-1-8 IC50 median
[5] = read-out: Caspase SUDHL5 EC50 (median), caspase-3/7 induction, 3 h
[6] = read-out: Caspase SUDHL10 EC50 (median), caspase-3/7 induction, 3 h
[7] = read-out: Antiproli AMO-1 IC50 median, 72 h, CellTiter-Glo
[8] = read-out: Antiproli HMC-1-8 IC50 median, 72 h, CellTiter-Glo
[9] = read-out: Antiproli HMC-1-8 IC50 median, CellTiter-Glo

Chain of BCL-XL (Q07817 1-212): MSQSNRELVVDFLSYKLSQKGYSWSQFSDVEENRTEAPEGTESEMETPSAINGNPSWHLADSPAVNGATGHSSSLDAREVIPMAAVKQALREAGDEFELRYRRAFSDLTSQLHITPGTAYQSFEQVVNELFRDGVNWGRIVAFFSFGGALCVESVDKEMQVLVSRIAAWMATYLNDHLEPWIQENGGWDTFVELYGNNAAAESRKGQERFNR

SMILES | IC50 (BCL-XL) | EC50 (SUDHL5 cells; [1]) | EC50 (SUDHL10 cells; [2]) | IC50 (AMO-1 cells; [3]) | IC50 (HMC-1-8 cells; [4]) | EC50 (SUDHL5 cells; [5]) | EC50 (SUDHL10 cells; [6]) | IC50 (AMO-1 cells; [7]) | IC50 (HMC-1-8 cells; [8]) | IC50 (HMC-1-8 cells; [9]) | EC50 (SUDHL5 cells; Homo sapiens, SU-DHL-5, 3 h, read-out: Caspase SUDHL5 EC50 (median), caspase-3/7 induction, 3 h) | EC50 (SUDHL10 cells; Homo sapiens, SU-DHL10, 3 h, read-out: Caspase SUDHL10 EC50 (median), caspase-3/7 induction, 3 h) | IC50 (AMO-1 cells; Homo sapiens, AMO1, 72 h, read-out: Antiproli AMO-1 IC50 median, 72 h, CellTiter-Glo)
Cc1c2c(nn1C)C(CCN1CCOCC1)OCCCCn1c(C(=O)O)c(CCCOc3cccc4cc(F)ccc34)c3ccc(Cl)c-2c31 (single isomer, unassigned; enantiomer 2) [Example 18, 4-chloro-7-{3-[(6-fluoronaphthalen-1-yl)oxy]propyl}-2,3-dimethyl-15-[2-(morpholin-4-yl)ethyl]-2,10,11,12,13,15-hexahydropyrazolo[4′,3′:9,10][1,6]oxazacycloundecino[8,7,6-hi]indole-8-carboxylic Acid (Enantiomer 2)] | > 20 µM | 0.53 µM | 2.3 µM | 2.37 µM | 12.5 µM | – | – | – | – | – | – | – | –
CCC1OCCCCn2c(C(=O)O)c(CCCOc3cccc4ccccc34)c3ccc(Cl)c(c32)-c2c1nn(C)c2C (single isomer, unassigned; enantiomer 1) [Example 29, (+)-4-chloro-15-ethyl-2,3-dimethyl-7-{3-[(naphthalen-1-yl)oxy]propyl}-2,10,11,12,13,15-hexahydropyrazolo[4′,3′:9,10][1,6]oxazacycloundecino[8,7,6-hi]indole-8-carboxylic Acid—N-ethylethanamine Salt (Enantiomer 1)] | 14.2 µM | – | – | – | – | 0.84 µM | 3.7 µM | 4.35 µM | 23.2 µM | – | – | – | –
CCc1c2c(nn1C)C(C1CC1)OCCCCn1c(C(=O)O)c(CCCOc3cccc4cc(F)ccc34)c3ccc(Cl)c-2c31 (racemic) [Example 38, (rac)-4-chloro-(15-rac)-cyclopropyl-3-ethyl-7-{3-[(6-fluoronaphthalen-1-yl)oxy]propyl}-2-methyl-2,10,11,12,13,15-hexahydropyrazolo[4′,3′:9,10][1,6]oxazacycloundecino[8,7,6-hi]indole-8-carboxylic Acid] | > 20 µM | 3.6 µM | 5.3 µM | 5.01 µM | 20.3 µM | – | – | – | – | – | – | – | –
CCc1c2c(nn1C)C(CCOC)OCCCCn1c(C(=O)O)c(CCCOc3cccc4cc(F)ccc34)c3ccc(Cl)c-2c31 (single isomer, unassigned; enantiomer 2) [Example 43, (−)-4-chloro-3-ethyl-7-{3-[(6-fluoronaphthalen-1-yl)oxy]propyl}-15-(2-methoxyethyl)-2-methyl-2,10,11,12,13,15-hexahydropyrazolo[4′,3′:9,10][1,6]oxazacycloundecino[8,7,6-hi]indole-8-carboxylic Acid—N-ethylethanamine Salt (Enantiomer 2)] | 17.2 µM | – | – | – | – | 20 µM | 24 µM | 20 µM | – | 26.5 µM | – | – | –
Cc1c2c(nn1C)C(CCN1CCOCC1)OCCCCn1c(C(=O)O)c(CCCOc3cccc4cc(F)ccc34)c3ccc(Cl)c-2c31 (single isomer, unassigned; enantiomer 1) [Example 17, 4-chloro-7-{3-[(6-fluoronaphthalen-1-yl)oxy]propyl}-2,3-dimethyl-15-[2-(morpholin-4-yl)ethyl]-2,10,11,12,13,15-hexahydropyrazolo[4′,3′:9,10][1,6]oxazacycloundecino[8,7,6-hi]indole-8-carboxylic Acid—N-ethylethanamine (Enantiomer 1)] | > 20 µM | – | – | – | – | – | – | – | 0.201 µM | – | 0.0058 µM | 0.0097 µM | 0.0282 µM
CCC1OCCCCn2c(C(=O)O)c(CCCOc3cccc4ccccc34)c3ccc(Cl)c(c32)-c2c1nn(C)c2C (single isomer, unassigned; enantiomer 2) [Example 30, (−)-4-chloro-15-ethyl-2,3-dimethyl-7-{3-[(naphthalen-1-yl)oxy]propyl}-2,10,11,12,13,15-hexahydropyrazolo[4′,3′:9,10][1,6]oxazacycloundecino[8,7,6-hi]indole-8-carboxylic Acid—N-ethylethanamine Salt (Enantiomer 2)] | > 20 µM | – | – | – | – | > 33 µM | > 33 µM | 31.6 µM | – | 22.6 µM | – | – | –
